Assay results taken from patent US9365584B2, “Thieno [2,3-B] pyridinedione activators of AMPK and therapeutic uses thereof” (Poxel, priority 2009, dated 2016).

These molecules were tested on AMPK (assay: AMPK enzyme activity assay (Delfia technology, AMARA peptide substrate)). Conditions: compound at 30 μM vs AMP at 200 μM.
Format: biochemical
Outline: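 Value is the ratio of compound (30 μM) to AMP (200 μM) response, each as % of basal control. Phosphorylation of the AMARA peptide after AMPK addition was read by Delfia with an anti-phosphoserine antibody.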

Question: For O=C1Nc2sc(Cl)c(-c3ccc(F)cc3O)c2C(=O)C1(Cl)c1ccccc1 (stereo not shown) [No 216, 2,5-dichloro-3-(4-fluoro-2-hydroxy-phenyl)-5-phenyl-7H-thieno[2,3-b]pyridine-4,6-dione], which “Activity: Ratio between the % of control (basal activity) of compound of formula (1) at 30 μM and the % of control (basal activity) of AMP (natural substrate) at 200 μM” value (shortened to “Activity: Ratio between the % of control”) is on record?
Answer: C (C≧75%)

Question: COc1cc(-c2csc3c2C(=O)C(F)(c2ccccc2)C(=O)N3)ccc1Br (stereo not shown) [No 159, 3-(4-bromo-3-methoxy-phenyl)-5-fluoro-5-phenyl-7H-thieno[2,3-b]pyridine-4,6-dione] was tested. Which “Activity: Ratio between the % of control” value did it give?
Answer: C (C≧75%)

Question: With COc1cccc(-c2c(F)sc3c2C(=O)C(F)(c2ccccc2)C(=O)N3)c1 (stereo not shown) [No 206, 2,5-difluoro-3-(3-methoxyphenyl)-5-phenyl-7H-thieno[2,3-b]pyridine-4,6-dione] as the molecule, how does the “Activity: Ratio between the % of control” value read?
Answer: C (C≧75%)

Question: How did the “Activity: Ratio between the % of control” value turn out when COc1ccc(C2(C)C(=O)Nc3sc(Cl)c(-c4cccc(C)c4)c3C2=O)cc1 (stereo not shown) [No 155, 2-chloro-5-(4-methoxyphenyl)-5-methyl-3-(m-tolyl)-7H-thieno[2,3-b]pyridine-4,6-dione] was run?
Answer: A (0%<A<50%)

Question: How did the “Activity: Ratio between the % of control” value turn out when COc1ccc(-c2c(Cl)sc3c2C(=O)C(F)(c2ccccc2)C(=O)N3)c(F)c1 (stereo not shown) [No 74, 2-chloro-5-fluoro-3-(2-fluoro-4-methoxy-phenyl)-5-phenyl-7H-thieno[2,3-b]pyridine-4,6-dione] was run?
Answer: C (C≧75%)

Question: With COc1cc(-c2c(F)sc3c2C(=O)C(F)(c2ccccc2)C(=O)N3)ccc1C (stereo not shown) [No 114, 2,5-difluoro-3-(3-methoxy-4-methyl-phenyl)-5-phenyl-7H-thieno[2,3-b]pyridine-4,6-dione] as the molecule, how does the “Activity: Ratio between the % of control” value read?
Answer: B (50%≦B<75%)

Question: Which “Activity: Ratio between the % of control” value does the source give for COc1cc(-c2c(F)sc3c2C(=O)C(F)(c2ccccc2)C(=O)N3)ccc1Br (stereo not shown) [No 160, 3-(4-bromo-3-methoxy-phenyl)-2,5-difluoro-5-phenyl-7H-thieno[2,3-b]pyridine-4,6-dione] here?
Answer: B (50%≦B<75%)

Question: How did the “Activity: Ratio between the % of control” value turn out when Cc1ccccc1-c1csc2c1C(=O)C(F)(c1ccccc1)C(=O)N2 (stereo not shown) [No 129, 5-fluoro-3-(o-tolyl)-5-phenyl-7H-thieno[2,3-b]pyridine-4,6-dione] was run?
Answer: B (50%≦B<75%)

Question: With COc1ccc(C2(C)C(=O)Nc3sc(Cl)c(-c4ccccc4)c3C2=O)cc1 (stereo not shown) [No 35, 2-chloro-5-(4-methoxyphenyl)-5-methyl-3-phenyl-7H-thieno[2,3-b]pyridine-4,6-dione] as the molecule, how does the “Activity: Ratio between the % of control” value read?
Answer: A (0%<A<50%)

Question: For N#Cc1cccc(C2(F)C(=O)Nc3sc(Cl)c(-c4ccc(F)cc4O)c3C2=O)c1 (stereo not shown) [No 224, 3-[2-chloro-5-fluoro-3-(4-fluoro-2-hydroxy-phenyl)-4,6-dioxo-7H-thieno[2,3-b]pyridin-5-yl]benzonitrile], which “Activity: Ratio between the % of control” value is on record?
Answer: C (C≧75%)

Question: Which “Activity: Ratio between the % of control” value does the source give for COc1ccc(C2(C)C(=O)Nc3sc(Cl)c(-c4ccc(F)cc4)c3C2=O)cc1 (stereo not shown) [No 53, 2-chloro-3-(4-fluorophenyl)-5-(4-methoxyphenyl)-5-methyl-7H-thieno[2,3-b]pyridine-4,6-dione] here?
Answer: A (0%<A<50%)

Question: For CCOc1ccc(C2(C)C(=O)Nc3scc(-c4ccc(Cl)cc4OC)c3C2=O)cc1 (stereo not shown) [No 21, 3-(4-chloro-2-methoxy-phenyl)-5-(4-ethoxyphenyl)-5-methyl-7H-thieno[2,3-b]pyridine-4,6-dione], which “Activity: Ratio between the % of control” value is on record?
Answer: A (0%<A<50%)

Question: Which “Activity: Ratio between the % of control” value does the source give for CC1(c2ccccc2F)C(=O)Nc2sc(Cl)c(-c3ccccc3)c2C1=O (stereo not shown) [No 28, 2-chloro-5-(2-fluorophenyl)-5-methyl-3-phenyl-7H-thieno[2,3-b]pyridine-4,6-dione] here?
Answer: A (0%<A<50%)

Question: With Cc1ccc(-c2c(Cl)sc3c2C(=O)C(C)(c2ccccc2)C(=O)N3)cc1 (stereo not shown) [No 34, 2-chloro-5-methyl-5-phenyl-3-(p-tolyl)-7H-thieno[2,3-b]pyridine-4,6-dione] as the molecule, how does the “Activity: Ratio between the % of control” value read?
Answer: A (0%<A<50%)

Question: For Cc1cccc(C2(F)C(=O)Nc3sc(Cl)c(-c4cccc(F)c4)c3C2=O)c1 (stereo not shown) [No 210, 2-chloro-5-fluoro-3-(3-fluorophenyl)-5-(m-tolyl)-7H-thieno[2,3-b]pyridine-4,6-dione], which “Activity: Ratio between the % of control” value is on record?
Answer: C (C≧75%)

Question: How did the “Activity: Ratio between the % of control” value turn out when CC1(c2ccccc2)C(=O)Nc2scc(-c3ccc(F)c(F)c3O)c2C1=O (stereo not shown) [No 14, 3-(3,4-difluoro-2-hydroxy-phenyl)-5-methyl-5-phenyl-7H-thieno[2,3-b]pyridine-4,6-dione] was run?
Answer: A (0%<A<50%)

Question: For O=C1Nc2sc(F)c(-c3ccccc3F)c2C(=O)C1(F)c1ccccc1 (stereo not shown) [No 178, 2,5-difluoro-3-(2-fluorophenyl)-5-phenyl-7H-thieno[2,3-b]pyridine-4,6-dione], which “Activity: Ratio between the % of control” value is on record?
Answer: B (50%≦B<75%)

Question: COc1ccccc1-c1c(Cl)sc2c1C(=O)C(C)(c1ccccc1)C(=O)N2 (stereo not shown) [No 145, 2-chloro-3-(2-methoxyphenyl)-5-methyl-5-phenyl-7H-thieno[2,3-b]pyridine-4,6-dione] was tested. Which “Activity: Ratio between the % of control” value did it give?
Answer: A (0%<A<50%)

Question: How did the “Activity: Ratio between the % of control” value turn out when Cc1cccc(C2(C)C(=O)Nc3sc(Cl)c(-c4ccccc4C)c3C2=O)c1 (stereo not shown) [No 59, 2-chloro-5-methyl-5-(m-tolyl)-3-(o-tolyl)-7H-thieno[2,3-b]pyridine-4,6-dione] was run?
Answer: C (C≧75%)

Question: For CC1(c2ccccc2F)C(=O)Nc2sc(Cl)c(-c3ccc(F)cc3)c2C1=O (stereo not shown) [No 55, 2-chloro-5-(2-fluorophenyl)-3-(4-fluorophenyl)-5-methyl-7H-thieno[2,3-b]pyridine-4,6-dione], which “Activity: Ratio between the % of control” value is on record?
Answer: B (50%≦B<75%)

Question: O=C1Nc2scc(-c3ccc(C(F)(F)F)cc3)c2C(=O)C1(F)c1ccccc1 (stereo not shown) [No 135, 5-fluoro-5-phenyl-3-[4-(trifluoromethyl)phenyl]-7H-thieno[2,3-b]pyridine-4,6-dione] was tested. Which “Activity: Ratio between the % of control” value did it give?
Answer: A (0%<A<50%)

Question: Which “Activity: Ratio between the % of control” value does the source give for CCOc1ccc(C2(C)C(=O)Nc3scc(-c4ccc(C)cc4F)c3C2=O)cc1 (stereo not shown) [No 17, 5-(4-ethoxyphenyl)-3-(2-fluoro-4-methyl-phenyl)-5-methyl-7H-thieno[2,3-b]pyridine-4,6-dione] here?
Answer: A (0%<A<50%)

Question: Cc1c(F)ccc(-c2c(Cl)sc3c2C(=O)C(Cl)(c2ccccc2)C(=O)N3)c1O (stereo not shown) [No 233, 2,5-dichloro-3-(4-fluoro-2-hydroxy-3-methyl-phenyl)-5-phenyl-7H-thieno[2,3-b]pyridine-4,6-dione] was tested. Which “Activity: Ratio between the % of control” value did it give?
Answer: C (C≧75%)

Question: Which “Activity: Ratio between the % of control” value does the source give for O=C1Nc2scc(-c3cccc(F)c3)c2C(=O)C1(F)c1ccccc1 (stereo not shown) [No 190, 5-fluoro-3-(3-fluorophenyl)-5-phenyl-7H-thieno[2,3-b]pyridine-4,6-dione] here?
Answer: B (50%≦B<75%)

Question: How did the “Activity: Ratio between the % of control” value turn out when CC1(c2ccc(O)cc2)C(=O)Nc2sc(Cl)c(-c3ccccc3)c2C1=O (stereo not shown) [No 140, 2-chloro-5-(4-hydroxyphenyl)-5-methyl-3-phenyl-7H-thieno[2,3-b]pyridine-4,6-dione] was run?
Answer: A (0%<A<50%)

Question: Which “Activity: Ratio between the % of control” value does the source give for COc1ccccc1-c1c(Cl)sc2c1C(=O)C(C)(c1ccccc1)C(=O)N2 (stereo not shown) [No 107, 2-chloro-3-(2-methoxyphenyl)-5-methyl-5-phenyl-7H-thieno[2,3-b]pyridine-4,6-dione] here?
Answer: A (0%<A<50%)

Question: Which “Activity: Ratio between the % of control” value does the source give for O=C1Nc2sc(Cl)c(-c3cccc(F)c3)c2C(=O)C1(F)c1ccccc1 (stereo not shown) [No 157, 2-chloro-5-fluoro-3-(3-fluorophenyl)-5-phenyl-7H-thieno[2,3-b]pyridine-4,6-dione] here?
Answer: C (C≧75%)

Question: With O=C1Nc2sc(Cl)c(-c3ccc(F)cc3O)c2C(=O)C1(F)c1ccsc1 (stereo not shown) [No 226, 2-chloro-5-fluoro-3-(4-fluoro-2-hydroxy-phenyl)-5-(3-thienyl)-7H-thieno[2,3-b]pyridine-4,6-dione] as the molecule, how does the “Activity: Ratio between the % of control” value read?
Answer: C (C≧75%)

Question: Which “Activity: Ratio between the % of control” value does the source give for CC1(c2cccc(F)c2)C(=O)Nc2sc(Cl)c(-c3cccc(F)c3)c2C1=O (stereo not shown) [No 103, 2-chloro-3,5-bis(3-fluorophenyl)-5-methyl-7H-thieno[2,3-b]pyridine-4,6-dione] here?
Answer: A (0%<A<50%)

Question: For O=C1Nc2scc(-c3ccc(F)cc3OCc3ccccc3)c2C(=O)C1(F)c1ccccc1 (stereo not shown) [No 174, 3-(2-benzyloxy-4-fluoro-phenyl)-5-fluoro-5-phenyl-7H-thieno[2,3-b]pyridine-4,6-dione], which “Activity: Ratio between the % of control” value is on record?
Answer: A (0%<A<50%)

Question: CCOc1ccc(C2(C)C(=O)Nc3sc(C)c(-c4ccc(F)c(C)c4O)c3C2=O)cc1 (stereo not shown) [No 19, 5-(4-ethoxyphenyl)-3-(4-fluoro-2-hydroxy-3-methyl-phenyl)-2,5-dimethyl-7H-thieno[2,3-b]pyridine-4,6-dione] was tested. Which “Activity: Ratio between the % of control” value did it give?
Answer: A (0%<A<50%)
